These results are taken from patent publication US20230023009A1, “HETEROCYCLIC COMPOUNDS AND METHODS OF USE THEREOF” (SPARCBIO LLC, priority 2020, published 2023).

By TGI is commonly meant the reduction of tumour growth relative to the control group. A lower TGI goes with little slowing of growth. One may read the IC50 as the concentration that gives 50% inhibition. Read a high IC50 as weaker potency in that assay.

The test system of series [1] is NCI-H358 subcutaneous xenograft tumors. The series can be described thus: NCI-H358 mouse xenograft model.
Method: NCI-H358 cells were injected subcutaneously (5×10^6 cells in 0.1 mL of PBS) into the right flanks of 6-8-week-old female BALB/c nude mice and allowed to grow until the average tumor size reached 150-200 mm^3. The mice were then stratified into treatment groups of 4-8 animals and treatment initiated on Day 0. Test compound or vehicle (1% Tween 80, 2% HPMC, and 97% water) was administered orally, once daily, for 21 days. Tumor size was measured twice weekly in two dimensions using a caliper, and the volume was expressed in mm^3 using the formula: V=(a×b^2/2) where a and b are the long and short diameters of the tumor, respectively. Tumor Growth Inhibition (TGI) was calculated for each group using the formula: TGI %=(1−Ti/Vi)×100, where Ti is the mean tumor volume of the treatment group on the measurement day, and Vi is the mean tumor volume of the control group on the measurement day. Animal body weight was monitored regularly as an indicator of toxicity. […] Data points represent the group mean, and error bars represent the standard error of the mean (SEM).
Series [2] concerns Phosphorylation of ERK in NCI-H358 cells. The series can be described thus: pERK assay (Method II, homogeneous TR-FRET). The class given is cell-based. Conditions: Homo sapiens, 4 hrs compound treatment. How it is done: Method II. Phosphorylation of ERK was assessed by a homogeneous TR-FRET assay (Advanced phospho-ERK (Thr202/Tyr204) cellular kit; Cat. #64AERPEH, Cisbio). In brief, NCI-H358 cells were seeded in a 384-well culture plate at a density of 6000 cells in 40 μL medium/well and grown overnight at 37° C. and 5% CO2. Each test compound was dosed in duplicate in a 10-dose 3-fold titration starting at 10 μM or 2 μM. The culture plate was then incubated for 4 hrs in the incubator. At the end of the compound treatment, the medium was removed, 35 μL of lysis buffer was added to each well, and the plate was agitated on a plate shaker for 40 mins at 4° C. An antibody cocktail of phospho-ERK1/2 Eu Cryptate antibody and Phospho-ERK1/2 d2 antibody was prepared by separately diluting the antibodies 20-fold with detection buffer and then mixing them together. 3.4 μL of antibody cocktail was dispensed to each well of an empty 384-well white ProxiPlus assay plate (Perkin Elmer), and the plate briefly centrifuged. 13.6 μL of cell lysate was then added to the antibody-containing wells, and the plate was briefly centrifuged and then incubated 2 hrs at room temperature. The plate was read on a fluorescence plate reader (Envision2104, Perkin Elmer), with an excitation wavelength of 337 nm and emission wavelengths of 615 nm and 665 nm. The IC50 value of each test compound was calculated with XLFit curve fitting software. Results are shown in Table 6. ‘+++’ indicates IC50 values≤300 nM, ‘++’ indicates IC50 values between 300 nM-3 μM, and ‘+’ indicates IC50 values≥3 μM.
For orientation: In TR-FRET formats the signal depends on donor and acceptor labels being close together.

The target in the next series is T1, hERG potassium channel (Homo sapiens, UniProt Q12809).
T1 construct: host or cells: CHO
T1 sequence (Q12809 whole entry): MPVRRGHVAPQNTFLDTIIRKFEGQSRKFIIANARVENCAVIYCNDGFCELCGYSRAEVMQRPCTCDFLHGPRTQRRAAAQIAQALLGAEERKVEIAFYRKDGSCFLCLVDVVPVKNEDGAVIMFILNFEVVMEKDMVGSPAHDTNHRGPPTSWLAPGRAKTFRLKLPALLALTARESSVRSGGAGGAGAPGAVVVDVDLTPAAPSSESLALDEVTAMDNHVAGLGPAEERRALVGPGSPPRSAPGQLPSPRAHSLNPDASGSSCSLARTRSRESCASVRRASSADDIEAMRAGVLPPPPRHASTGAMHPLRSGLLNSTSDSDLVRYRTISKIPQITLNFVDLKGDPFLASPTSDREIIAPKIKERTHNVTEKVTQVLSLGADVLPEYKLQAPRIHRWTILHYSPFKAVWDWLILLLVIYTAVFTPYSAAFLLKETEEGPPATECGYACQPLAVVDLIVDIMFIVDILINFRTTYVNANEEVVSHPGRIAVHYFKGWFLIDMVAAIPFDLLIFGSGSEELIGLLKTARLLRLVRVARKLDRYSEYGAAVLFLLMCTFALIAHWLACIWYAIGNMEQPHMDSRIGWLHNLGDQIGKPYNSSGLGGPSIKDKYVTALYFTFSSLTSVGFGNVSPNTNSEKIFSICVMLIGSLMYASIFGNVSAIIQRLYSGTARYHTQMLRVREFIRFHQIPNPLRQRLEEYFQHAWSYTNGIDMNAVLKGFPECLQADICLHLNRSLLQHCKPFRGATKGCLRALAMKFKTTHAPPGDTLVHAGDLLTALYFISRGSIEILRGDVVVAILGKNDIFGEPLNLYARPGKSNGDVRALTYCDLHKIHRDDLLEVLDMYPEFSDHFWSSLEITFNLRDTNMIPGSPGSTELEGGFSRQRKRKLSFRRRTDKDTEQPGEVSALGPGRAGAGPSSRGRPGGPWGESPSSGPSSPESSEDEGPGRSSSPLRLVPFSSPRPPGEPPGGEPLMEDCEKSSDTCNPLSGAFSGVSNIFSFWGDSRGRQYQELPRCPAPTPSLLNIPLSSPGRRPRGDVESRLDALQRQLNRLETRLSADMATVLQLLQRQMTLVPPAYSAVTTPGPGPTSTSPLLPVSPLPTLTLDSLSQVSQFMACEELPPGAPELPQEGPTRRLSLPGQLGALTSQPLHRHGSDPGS
The series can be described thus: hERG inhibition assay (manual whole-cell patch-clamp, CHO cells). The class given is cell-based. How it is done: Compounds were tested for the potential to inhibit the hERG potassium channel. It is known that inhibition of the hERG channel may cause QT prolongation and increase the risk of cardiac arrhythmias. Therefore, to avoid cardiotoxicity, a compound with relatively low or no inhibition of the channel is desirable. Manual whole-cell patch-clamp recordings were made in Chinese hamster ovary (CHO) cells stably expressing hERG channels (B'Sys, Switzerland). Standard intracellular and bath solutions for hERG current detection were used. Cells were exposed to test compounds at 6 concentrations prepared by 1:3 serial dilution of compounds from a top starting concentration of 30 μM. Currents were elicited by stepping the voltage from a holding potential of −80 mV to −50 mV (20 ms) and then stepping to +40 mV (4 s). A subsequent step to −50 mV (4 s) was used to elicit a tail current which was used for data analysis. Current recordings were made in triplicate using three different cells. Data normalized to the activity in vehicle (0.1 or 0.3% DMSO) were fit with 4-parameter non-linear regression, and IC50 values were determined from the dose-response curves, using GraphPad Prism software.
In general terms: hERG is a cardiac potassium channel; its block is linked to QT prolongation.

Regarding `C=C(F)C(=O)N1CCN(c2nc(OC[C@@H]3CCCN3C)nc3c2CO[C@@H](c2cccc4cccc(Cl)c24)C3)C[C@@H]1CC#N` (single isomer, unassigned) [43 (Isomer B)], the TGI is reported as 15.1% in series [1] (10 mg/kg orally once daily, Day 20 after treatment start); 43.6% in series [1] (30 mg/kg orally once daily, Day 20 after treatment start (day not restated for comparators)); 94.6% in series [1] (100 mg/kg orally once daily, Day 20 after treatment start). Also, the “tolerability (from body weight)” value in series [1] (10, 30 and 100 mg/kg orally once daily for 21 days) is recorded as “well-tolerated”. Besides, the weight loss in series [1] (none of the mice greater than this, 10, 30 and 100 mg/kg once daily) is ≤ 10%. For the same molecule, the IC50 was ≤ 0.3 µM in series [2] and 3.61 µM against hERG potassium channel.
